Data on 3 molecules can be found in patent publication US20190185829A1, “Preparation of lipase with improved ester synthesis activity by using surfactants” (Jiangnan University, priority 2017, published 2019).

What all share (type): biochemical
Assay [1] concerns Rhizopus chinensis lipase r27RCL. The assay can be described thus: Ester synthesis activity of surfactant-treated lyophilized lipase r27RCL by GC analysis. The following applies: surfactant 10 mM, protein 0.2 mg·mL^−1. On the procedure: (§1) (2) Determination of Ester Synthesis Activity of the Lipase by GC Analysis
(§2) Substrate solution A: 48.5 mL of n-octanoic acid is dissolved in 250 mL of n-heptane in a volumetric flask.
(§3) Substrate solution B: 17.5 mL of absolute ethanol is dissolved in 250 mL of n-heptane in a volumetric flask.
(§4) Internal standard: 2-hexanol/n-heptane (35 g·L^−1).
(§5) Standard sample: 10 g of n-octanoate is dissolved in 1000 mL of n-heptane in a volumetric flask.
(§6) 1 mL substrate solution A and substrate solution B are added in a 5 mL Eppendorf tube respectively, then 20 mg lipase powder (or lyophilized powder) is added. The reaction is carried out at 40° C. and with shaking at 150 rpm for 30 min. Remove the lipase powder by centrifugation or membrane filtration. Then 0.1 mL of internal standard is added in 0.4 mL of filtrate or supernatant and mixed. Measure the content of n-octanoate in the mixture above by GC analysis.
(§7) The gas chromatograph (6820, Agilent Instruments) is equipped with a AC20 (PEG20000) capillary column and a FID detector. Nitrogen was used as the carrier gas. The oven temperature was programmed to start at 90° C. for 1 min and then be elevated to 200° C. for 5 min at 10° C.·min^−1. The injector and detector temperatures were set at 250° C.
(§8) Definition of enzyme activity: One unit of ester synthesis activity is defined as the amount of enzyme that esterifies 1 micromole of n-octanoate per min.
(§9) Specific activity: the activity of lipase per milligram of total protein in the lipase preparation.
(§10) Total recovery: the percentage of the activity after a treatment to that before the treatment
(§11) Add an equal volume of high-concentration surfactant solution into the enzyme solution. The final protein concentration was […] and the surfactant concentration was 10 mM. After mixed thoroughly, the mixture was lyophilized and kept in dry condition.
(§12) Commercial lipase r27RCL was purchased from Jiangsu Yiming Biological Technology Co., Ltd, which has high hydrolytic activity and low ester synthesis activity. Dissolve the r27RCL powder in water and centrifuge to obtain the supernatant containing the r27RCL lipase to adjust the ester synthesis activity (the final protein concentration was 0.2 mg·mL^−1 and the final concentration of surfactant was 10 mM, which is between 0.1×CMC^˜200×CMC of the different surfactants in Table 1).
(§13) Commercial lipase r27RCL was purchased from Jiangsu Yiming Biological Technology Co., Ltd. r27RCL is a lipase with high hydrolytic activity but low ester synthesis activity. Dissolve the r27RCL powder in water, centrifuge to obtain the supernatant and treat the supernatant with different concentrations of surfactant LPC14 (the final protein concentration was 0.2 mg·mL^−1).

For assay [2] the test system is unchanged. Nature of the assay: Hydrolytic activity of surfactant-treated lipase r27RCL using pNPP as substrate. The following applies: surfactant 10 mM, protein 0.2 mg·mL^−1.
Source text: (§14) (1) Determination of Hydrolytic Activity of the Lipase Using p-Nitrophenyl Palmitate (pNPP) as Substrate
(§15) Hydrolysis of pNPP catalyzed by lipase generates p-nitrophenol and palmitic acid. p-nitrophenol appears yellow in the buffer at pH 8.0 with the maximum absorption peak at 410 nm. Determination of hydrolytic activity can be achieved by measuring the absorbance at 410 nm.
(§16) The substrate solution A: 50 mmol·L^−1 sodium phosphate buffer (pH 8.0) containing 1.16 g·L^−1 sodium deoxycholate and 0.56 g·L^−1 arabic gum. Substrate solution B: 0.015 g pNPP is dissolved in 5 mL isopropyl alcohol. Substrate solution A and substrate solution B are mixed then stored for use afterwards.
(§17) Termination solution: 40 g·L^−1 NaOH, 93.05 g·L^−1 EDTA sodium. Add 62 uL termination solution to the reaction mixture when stopping the reaction.
(§18) Add 0.1 mL appropriately diluted enzyme solution, which is substituted by inactivated enzyme solution as the control, to 2.4 mL substrate solution above, incubate the mixture at 40° C. for 2 min and measure the absorbance at 410 nm.
(§19) one hydrolytic activity unit is defined as the amount of enzyme that catalyzes the formation of 1 μmol of p-nitrophenol in 1 minute at 40° C.
(§20) enzyme activity (U·mL^−1)=(V×A410×10^6)/(ε×t×V′) Calculation equation: […]
(§21) Specific activity: the activity of lipase per milligram of total protein in the lipase preparation. […]
as §12, §13

For assay [3], the target named is T1, Rhizoupus oryzae lipase ROL (Rhizopus oryzae, UniProt P61872).
T1 construct: purchased Sigma-Aldrich Co., Ltd
T1 sequence (P61872 96-392): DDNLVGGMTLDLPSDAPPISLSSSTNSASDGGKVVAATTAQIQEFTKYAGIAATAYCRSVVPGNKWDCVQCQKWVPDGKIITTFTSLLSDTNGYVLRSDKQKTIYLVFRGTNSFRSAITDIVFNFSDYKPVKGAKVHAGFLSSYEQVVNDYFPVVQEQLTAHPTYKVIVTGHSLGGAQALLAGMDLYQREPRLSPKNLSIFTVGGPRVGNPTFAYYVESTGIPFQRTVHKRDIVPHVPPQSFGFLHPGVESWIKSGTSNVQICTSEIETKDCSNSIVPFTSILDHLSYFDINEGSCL
Nature of the assay: Ester synthesis activity of surfactant-treated lyophilized lipase ROL by GC analysis. As to conditions: surfactant 10 mM, protein 0.2 mg·mL^−1. On the procedure: as §1, §2, §3, §4, §5, §6, §7, §8, §9, §10, §11
(§22) Commercial lipase ROL was purchased from Sigma-Aldrich Co., Ltd. ROL is a non-immobilized lipase. Dissolve the ROL powder in water and centrifuge to obtain the supernatant containing the ROL lipase that would be regulated to improve its ester synthesis activity by adjusting the final protein concentration to 0.2 mg·mL^−1 and adding surfactants to the final concentration of 10 mM.
(§23) Commercial lipase ROL was purchased from Sigma-Aldrich Co., Ltd. and is a non-immobilized lipase. Dissolve the ROL powder in water, centrifuge to obtain the supernatant and treat the supernatant with different concentrations of surfactant LPC14 (the final protein concentration was 0.2 mg·mL^−1).

In assay [4] the target is T1, Rhizoupus oryzae lipase ROL. Nature of the assay: Hydrolytic activity of surfactant-treated lipase ROL using pNPP as substrate. As to conditions: surfactant 10 mM, protein 0.2 mg·mL^−1.
Source text: as §14, §15, §16, §17, §18, §19, §20, §21, §22, §23

Assay [5] deals with T2, Pseudomonas cepacia lipase PCL (Burkholderia cepacia, UniProt P22088).
T2 construct: purchased Sigma-Aldrich Co., Ltd
T2 sequence (P22088 45-364): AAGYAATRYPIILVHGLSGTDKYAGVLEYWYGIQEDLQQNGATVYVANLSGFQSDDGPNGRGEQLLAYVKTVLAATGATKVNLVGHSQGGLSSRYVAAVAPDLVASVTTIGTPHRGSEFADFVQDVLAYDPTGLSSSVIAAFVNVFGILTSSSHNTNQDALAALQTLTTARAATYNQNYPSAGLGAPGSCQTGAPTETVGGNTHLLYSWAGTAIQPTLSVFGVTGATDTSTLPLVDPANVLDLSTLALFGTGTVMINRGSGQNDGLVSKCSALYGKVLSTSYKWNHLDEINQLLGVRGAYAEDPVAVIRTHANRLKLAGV
Nature of the assay: Ester synthesis activity of surfactant-treated lyophilized lipase PCL by GC analysis. As to conditions: protein 0.2 mg·mL^−1. On the procedure: as §1, §2, §3, §4, §5, §6, §7, §8, §9, §10, §11
(§24) Commercial lipase PCL was purchased from Sigma-Aldrich Co., Ltd. PCL is a non-immobilized lipase. Dissolve the PCL powder in water and centrifuge to obtain the supernatant containing the PCL lipase that would be regulated to improve the ester synthesis activity by adjusting the final protein concentration to 0.2 mg·mL^−1 and adding surfactants to the final concentration of 10 mM.
(§25) Commercial lipase PCL was purchased from Sigma-Aldrich Co., Ltd. and is a non-immobilized lipase. Dissolve the PCL powder in water, centrifuge to obtain the supernatant and treat the supernatant with different concentrations of surfactant DDM (the final protein concentration was 0.2 mg·mL^−1).

Assay [6] concerns the target T2, Pseudomonas cepacia lipase PCL. The assay can be described thus: Hydrolytic activity of surfactant-treated lipase PCL using pNPP as substrate. The following applies: protein 0.2 mg·mL^−1.
Source text: as §14, §15, §16, §17, §18, §19, §20, §21, §24, §25

In assay [7] the target is T3, Candida antarctica lipase CALB (Moesziomyces antarcticus, UniProt P41365).
T3 construct: purchased Sigma-Aldrich Co., Ltd
T3 sequence (P41365 26-342): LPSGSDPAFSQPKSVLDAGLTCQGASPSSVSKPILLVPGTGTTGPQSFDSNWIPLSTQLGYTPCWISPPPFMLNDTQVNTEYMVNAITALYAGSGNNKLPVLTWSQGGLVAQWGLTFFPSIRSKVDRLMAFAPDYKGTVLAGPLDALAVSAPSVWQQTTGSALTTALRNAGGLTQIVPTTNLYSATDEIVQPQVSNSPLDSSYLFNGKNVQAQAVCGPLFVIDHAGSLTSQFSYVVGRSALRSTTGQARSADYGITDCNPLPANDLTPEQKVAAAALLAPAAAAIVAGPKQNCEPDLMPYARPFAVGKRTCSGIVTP
Nature of the assay: Ester synthesis activity of surfactant-treated lyophilized lipase CALB by GC analysis. As to conditions: protein 0.12 mg·mL^−1. The protocol: as §1, §2, §3, §4, §5, §6, §7, §8, §9, §10, §11
(§26) Commercial lipase CALB was purchased from Sigma-Aldrich Co., Ltd. CALB is a non-immobilized lipase. Dissolve the CALB powder in water and centrifuge to obtain the supernatant containing the CALB lipase that would be regulated to improve the ester synthesis activity by adjusting the final protein concentration to 0.12 mg·mL^−1 and adding surfactants to the final concentration of 10 mM.
(§27) Commercial lipase CALB was purchased from Sigma-Aldrich Co., Ltd. and is a non-immobilized lipase. Dissolve the CALB powder in water, centrifuge to obtain the supernatant and treat the supernatant with different concentrations of surfactant DDM (the final protein concentration was 0.12 mg·mL^−1).

In assay [8] the target is T3, Candida antarctica lipase CALB. Nature of the assay: Hydrolytic activity of surfactant-treated lipase CALB using pNPP as substrate. The following applies: protein 0.12 mg·mL^−1.
Source text: as §14, §15, §16, §17, §18, §19, §20, §21, §26, §27

[9] abbreviates: surfactant concentration 0.1 x CMC.
Setting [10] is: surfactant concentration 1 x CMC.
Setting [11] is: surfactant concentration 10 x CMC.
[12] abbreviates: surfactant concentration 100 x CMC.

For `CCCCCCCCCCCCO[C@@H]1O[C@H](CO)[C@@H](O[C@H]2O[C@H](CO)[C@@H](O)[C@H](O)[C@H]2O)[C@H](O)[C@H]1O` [DDM, n-dodecyl-ß-D-maltopyranoside], the “Ester synthesis activity, Specific activity” value in assay [1] was 31.4 U · mg^−1; in assay [3], 2.8 U · mg^−1; in assay [5] (surfactant 10 mM), 55.6 U · mg^−1; in assay [5] (setting [9]) it was 3.2 U · mg^−1; in assay [5] (setting [10]), 2.9 U · mg^−1; in assay [5] (setting [11]), 20.0 U · mg^−1. In addition, the “Ester synthesis activity, Specific activity” value in assay [5] (setting [12]) came to 101.6 U · mg^−1; in assay [7] (surfactant 10 mM), 101.9 U · mg^−1; in assay [7] (setting [9]), 4.0 U · mg^−1; in assay [7] (setting [10]) it was 14.3 U · mg^−1; in assay [7] (setting [11]), 37.3 U · mg^−1; in assay [7] (setting [12]), 32.6 U · mg^−1. The “Hydrolytic activity, Specific activity” value in assay [2] amounted to 135.0 U · mg^−1; in assay [4], 42.7 U · mg^−1; in assay [6] (surfactant 10 mM) it was 327.7 U · mg^−1; in assay [6] (setting [9]) it was 499.5 U · mg^−1; in assay [6] (setting [10]), 434.7 U · mg^−1; in assay [6] (setting [11]), 756.7 U · mg^−1. Moreover, the “Hydrolytic activity, Specific activity” value in assay [6] (setting [12]) worked out at 773.5 U · mg^−1; in assay [8] (surfactant 10 mM), 0 U · mg^−1; in assay [8] (setting [9]) it was 2.1 U · mg^−1; in assay [8] (setting [10]) it was 3.0 U · mg^−1; in assay [8] (setting [11]), 0.7 U · mg^−1; in assay [8] (setting [12]) it was 0 U · mg^−1. For the same molecule, the “Hydrolytic activity, Total recovery” value is on record as 94% in assay [2]; 116% in assay [4]; 111% in assay [6] (surfactant 10 mM); 106% in assay [6] (setting [9]); 99% in assay [6] (setting [10]); 114% in assay [6] (setting [11]). The “Hydrolytic activity, Total recovery” value in assay [6] (setting [12]) is recorded as 246%; in assay [8] (surfactant 10 mM), 0%; in assay [8] (setting [9]) it was 45%; in assay [8] (setting [10]), 75%; in assay [8] (setting [11]), 10%; in assay [8] (setting [12]), 0%. The “Ester synthesis activity, Total recovery” value amounted to 58% in assay [5] (setting [9]); 57% in assay [5] (setting [10]); 260% in assay [5] (setting [11]); 12% in assay [7] (setting [9]); 50% in assay [7] (setting [10]); 73% in assay [7] (setting [11]). Further, the “Ester synthesis activity, Total recovery” value in assay [7] (setting [12]) came out at 189%.
For the molecule `CCCCCC(=O)OC[C@H](COP(=O)([O-])OCC[N+](C)(C)C)OC(=O)CCCCC` [DiC6PC, 1,2-dihexanoyl lecithin], the “Ester synthesis activity, Specific activity” value was 15.9 U · mg^−1 in assay [1], 3.11 U · mg^−1 in assay [3], 7.1 U · mg^−1 in assay [5] (surfactant 10 mM) and 31.9 U · mg^−1 in assay [7] (surfactant 10 mM). Besides, the results for the “Ester synthesis activity, Total recovery” value in assay [1] and in assay [5] (surfactant 10 mM) were 256% and 260%, respectively. The “Hydrolytic activity, Specific activity” value is reported as 104.2 U · mg^−1 in assay [2], 15.2 U · mg^−1 in assay [4], 308.2 U · mg^−1 in assay [6] (surfactant 10 mM) and 0.98 U · mg^−1 in assay [8] (surfactant 10 mM). In addition, the “Hydrolytic activity, Total recovery” value is 87% in assay [2], 76% in assay [4], 140% in assay [6] (surfactant 10 mM) and 85% in assay [8] (surfactant 10 mM).
With `CCCCCCCCCCCCOCCOCCOCCOCCOCCOCCOCCOCCO` [C12E8, octaethylene glycol monododecyl ether], the “Ester synthesis activity, Specific activity” value in assay [1] was 22.2 U · mg^−1; in assay [3], 2.6 U · mg^−1; in assay [5] (surfactant 10 mM), 4.6 U · mg^−1; in assay [7] (surfactant 10 mM), 62.8 U · mg^−1. For the same molecule, the “Hydrolytic activity, Specific activity” value in assay [2] worked out at 117.1 U · mg^−1; in assay [4], 23.7 U · mg^−1; in assay [6] (surfactant 10 mM), 281.1 U · mg^−1; in assay [8] (surfactant 10 mM) it was 0 U · mg^−1. Also, the “Hydrolytic activity, Total recovery” value in assay [2] is listed as 101%; in assay [4] it was 82%; in assay [6] (surfactant 10 mM), 98%; in assay [8] (surfactant 10 mM), 0%. In addition, in assay [5] (surfactant 10 mM), the “Ester synthesis activity, Total recovery” value was determined as 130%.
